According to paper PMC7911295, “Metabolism of Zearalenone in the Rumen of Dairy Cows with and without Application of a Zearalenone-Degrading Enzyme” (Toxins, 2021):

Key:
[1] = Feeding trial in rumen-fistulated dairy cows: ZEN and ZEN metabolites in feces; format: in vivo, Holstein Friesian cows; conditions: for Percentage of concentration relative to the sum of ZEN and ZEN metabolite concentrations: feces
From the text: (§1) Ruminal metabolism of ZEN with and without supplementation of ZenA was investigated in four rumen-fistulated Holstein Friesian cows (sex: female; age at start: 5.9 ± 1.0 years; body weight at start: 863 ± 65 kg; physiological stage: non-lactating; general health: good, non-gestating; identification procedure: ear tag 4-digit code). The cows were part of the dairy herd of VetFarm (Teaching and Research Farm) of the University of Veterinary Medicine Vienna in Kremesberg, Austria. All procedures related to these experiments were performed according to Austrian law and following the European Guidelines for the Care and Use of Animals for Research Purpose. The animal experiment was approved by ethics and animal welfare commission of the University of Veterinary Medicine, Vienna and the Austrian Federal Ministry of Education, Science and Research (68.205/0156-WF/V/3b/2017, 30.08.2017).
(§2) In our trial setup, each animal was considered an experimental unit (n = 4). Each animal received the same treatment and served as its own control. First, each animal received ZEN-contaminated concentrate feed. Following a 48-h washout period, each animal received ZEN-contaminated concentrate feed supplemented with ZenA. In brief, for acclimatization, on the day prior to the start of the feeding trial, each animal was manually fed 4 × 500 g of control concentrate (Table 4 and Table 5). Thereafter, animals were manually fed (i) 1 × 500 g concentrate contaminated with ZEN and 3 × 500 g control concentrate on experimental day 1 (ZEN treatment), (ii) 4 × 500 g control concentrate on day 2 (ZEN washout), (iii) 1 × 500 g ZEN-contaminated concentrate supplemented with ZenA and 3 × 500 g control concentrate on day 3 (ZEN+ZenA treatment), and (iv) 4 × 500 g control concentrate on day 4 (ZEN+ZenA washout; Table 6). Animals were treated and assessed in the same random order at each experimental time point.
On days 1 and 3 of the experiment, feces samples were taken from the rectum immediately before concentrate feeding (0 h), as well as 10 h after concentrate feeding (Table 6) and stored at −20 °C. Aliquots (500 mg) of thoroughly homogenized feces samples were extracted for HPLC-MS/MS analysis according to the method described by Binder and coworkers.
HPLC-MS/MS analysis of ZEN, α-ZEL, β-ZEL, HZEN and DHZEN in rumen fluid and feces was performed as described for the in vitro rumen fermentation experiment (see section “In Vitro Rumen Fermentation Experiment”, subsection “Analysis of ZEN and its Metabolites”), with the following modifications. Chromatographic separation was performed with a flow rate of 0.6 mL/min, a duration of 4 min and an injection volume was 1 µL. The gradient started at 30% B which was held for 0.3 min. Subsequently, the proportion of B was increased to 80% from 0.3 to 2 min, and increased to 100% from 2 to 2.1 min. […] LODs for ZEN, α-ZEL, β-ZEL, HZEN and DHZEN in rumen fluid were 2.83 nmol/L (0.9 µg/L), 2.81 nmol/L (0.9 µg/L), 2.81 nmol/L (0.9 µg/L), 2.68 nmol/L (0.9 µg/L) and 10.27 nmol/L (3 µg/L), respectively. LOQs for ZEN, α-ZEL, β-ZEL, HZEN and DHZEN in rumen fluid were 9.43 nmol/L (3 µg/L), 9.37 nmol/L (3 µg/L), 9.37 nmol/L (3 µg/L), 8.93 nmol/L (3 µg/L) and 30.81 nmol/L (9 µg/L), respectively. LODs for ZEN, α-ZEL, β-ZEL, HZEN and DHZEN in feces were 0.03 nmol/g (8.4 ng/g), 0.03 nmol/g (8.4 ng/g), 0.03 nmol/g (8.4 ng/g), 0.03 nmol/g (8.4 ng/g) and 0.10 nmol/g (28 ng/g), respectively. LOQs for ZEN, α-ZEL, β-ZEL, HZEN and DHZEN in feces were 0.09 nmol/g (28 ng/g), 0.09 nmol/g (28 ng/g), 0.09 nmol/g (28 ng/g), 0.08 nmol/g (28 ng/g) and 0.29 nmol/g (84 ng/g), respectively.

[2] = Feeding trial in rumen-fistulated dairy cows: ZEN and ZEN metabolites in rumen fluid from reticulum, dorsal mat layer and ventral sac; format: in vivo, Holstein Friesian cows; conditions: for Detection in rumen fluid: any reticulorumen location
From the text: as §1, §2
For production of ZEN-contaminated concentrate feed, lyophilizate of ZEN with maltodextrin as a carrier was prepared. To this end, in three parallel preparations, 50 mg ZEN (Fermentek, Jerusalem, Israel) was dissolved in 1 L RO water (pH 12; adjusted with NaOH) using a magnetic stirrer set to 400 rpm and 37 °C for 20 min. Subsequently, 100 g maltodextrin DE19 (Agrana, Vienna, Austria) was added and dissolved by stirring (400 rpm) at room temperature for 10 min. The solution was lyophilized. Lyophilizate was mixed into concentrate feed at an inclusion rate of 2%. The final concentration of ZEN in feed was aimed to be 10 mg/kg and was verified using HPLC-MS/MS analysis as described below. For production of ZEN-contaminated, ZenA-supplemented concentrate, a zearalenone hydrolase ZenA preparation (ZENzyme®; EC 3.1.1.-; BIOMIN Holding GmbH, Getzersdorf, Austria) was mixed into ZEN-contaminated concentrate to achieve an activity of 128 U/kg feed. Same as in the in vitro trial, 1 U of ZenA was defined as the enzyme activity that hydrolyzes 1 μmol ZEN per minute from 15.71 µM ZEN in Teorell Stenhagen buffer adjusted to pH 7.5 containing 0.1 mg/mL bovine serum albumin at 37 °C.
On days 1 and 3 of the trial (ZEN and ZEN+ZenA treatment, respectively), ruminal digesta samples were taken from reticulum, ventral sac and dorsal mat layer (Figure 3) immediately before concentrate feeding (0 h), as well as 15 min, 1 h, 2 h, 4 h, 7 h and 10 h after concentrate feeding (Table 6). On days 2 and 4 of the trial (washout days), ruminal digesta samples were taken immediately before first concentrate feeding (0 h), as well as 10 h after first concentrate feeding (Table 6). Ruminal digesta samples (10 mL) were taken via a rumen fistula from reticulum and ventral sac (10 cm above the bottom of the rumen) using a pump as described previously. Samples were taken from the dorsal mat layer 20 cm below the gas phase and rumen fluid was obtained by manually squeezing the samples as described previously. Samples were mixed 1:2 with acetonitrile by vortexing. […]

pigs = tested on: pigs; parameters: method as in PMID 31434326; conditions: in contrast to ZEN; cited from earlier work
[3] = for Detection in reactors: reactors incubated with ZEN without ZenA, any time point
estrogen-sensitive yeast = tested on: estrogen-sensitive yeast; parameters: method as in PMID 31434326; conditions: cited from earlier work
MCF-7 cell = tested on: MCF-7 cell; parameters: method as in PMID 12596876, PMID 31434326; conditions: cited from earlier work
[4] = ZEN+ZenA treatment, 0 h (48 h after ZEN treatment)
[5] = reticulorumen, ZEN treatment, 15 min after feeding, from median of 3 locations
[6] = reticulorumen, ZEN treatment, 1 h
[7] = reticulorumen, ZEN treatment, 4 h
[8] = reticulorumen, ZEN treatment, 7 h
[9] = reticulorumen, ZEN treatment, 10 h
[10] = reticulorumen, ZEN treatment, 24 h
[11] = reticulorumen, ZEN+ZenA treatment, 15 min
[12] = reticulorumen, ZEN+ZenA treatment, 1 h
[13] = reticulorumen, ZEN+ZenA treatment, 4 h
[14] = reticulorumen, ZEN+ZenA treatment, 7 h
[15] = reticulorumen, ZEN+ZenA treatment, 10 h

## C[C@H](O)CCCC(=O)CCC/C=C/c1cc(O)cc(O)c1 [DHZEN, decarboxylated hydrolyzed zearalenone]
[1]; ZEN and ZEN+ZenA treatments, any sample
  Detection in feces: not detected
[1]; ZEN treatment, 10 h
  Percentage of concentration relative to the sum of ZEN and ZEN metabolite concentrations: 0.0%
[1]; [4]
  Percentage of concentration relative to the sum of ZEN and ZEN metabolite concentrations: 0.0%
[1]; ZEN+ZenA treatment, 10 h
  Percentage of concentration relative to the sum of ZEN and ZEN metabolite concentrations: 0.0%
[2]; ZEN treatment
  Detection in rumen fluid: not detected
[2]; [5]
  Percentage of concentration relative to the sum of ZEN and ZEN metabolite concentrations: 0.0%
[2]; [6]
  Percentage of concentration relative to the sum of ZEN and ZEN metabolite concentrations: 0.0%
[2]; [7]
  Percentage of concentration relative to the sum of ZEN and ZEN metabolite concentrations: 0.0%
[2]; [8]
  Percentage of concentration relative to the sum of ZEN and ZEN metabolite concentrations: 0.0%
[2]; [9]
  Percentage of concentration relative to the sum of ZEN and ZEN metabolite concentrations: 0.0%
[2]; [10]
  Percentage of concentration relative to the sum of ZEN and ZEN metabolite concentrations: 0.0%
[2]; [11]
  Percentage of concentration relative to the sum of ZEN and ZEN metabolite concentrations: 0.0%
[2]; [12]
  Percentage of concentration relative to the sum of ZEN and ZEN metabolite concentrations: 0.0%
[2]; [13]
  Percentage of concentration relative to the sum of ZEN and ZEN metabolite concentrations: 0.0 (traces) %
[2]; [14]
  Percentage of concentration relative to the sum of ZEN and ZEN metabolite concentrations: 0.0 (traces) %
[2]; [15]
  Percentage of concentration relative to the sum of ZEN and ZEN metabolite concentrations: 0.0 (traces) %
pigs
  Effect on reproductive tract morphology or expression of ZEN-responsive microRNAs: did not affect
[3]; reactors incubated with ZEN and ZenA (100 U/kg feed)
  First detected (time after start of incubation): 2 h
[3]
  Detection in reactors: not detected
estrogen-sensitive yeast
  Estrogenic response: did not elicit an estrogenic response
MCF-7 cell
  Estrogenic response: did not elicit an estrogenic response

## C[C@H](O)CCCC(=O)CCC/C=C/c1cc(O)cc(O)c1C(=O)O [HZEN, hydrolyzed zearalenone]
[1]; ZEN treatment, 10 h
  Percentage of concentration relative to the sum of ZEN and ZEN metabolite concentrations: 0.0%
[1]; [4]
  Percentage of concentration relative to the sum of ZEN and ZEN metabolite concentrations: 0.0%
[1]; ZEN+ZenA treatment, 10 h
  Percentage of concentration relative to the sum of ZEN and ZEN metabolite concentrations: 31.9%
[2]; ZEN treatment
  Detection in rumen fluid: not detected
[2]; [5]
  Percentage of concentration relative to the sum of ZEN and ZEN metabolite concentrations: 0.0%
[2]; [6]
  Percentage of concentration relative to the sum of ZEN and ZEN metabolite concentrations: 0.0%
[2]; [7]
  Percentage of concentration relative to the sum of ZEN and ZEN metabolite concentrations: 0.0%
[2]; [8]
  Percentage of concentration relative to the sum of ZEN and ZEN metabolite concentrations: 0.0%
[2]; [9]
  Percentage of concentration relative to the sum of ZEN and ZEN metabolite concentrations: 0.0%
[2]; [10]
  Percentage of concentration relative to the sum of ZEN and ZEN metabolite concentrations: 0.0%
[2]; reticulorumen, ZEN+ZenA treatment
  Not detected anymore at (time after concentrate feeding): 24 h
[2]; [11]
  Percentage of concentration relative to the sum of ZEN and ZEN metabolite concentrations: 94.1%
[2]; [12]
  Percentage of concentration relative to the sum of ZEN and ZEN metabolite concentrations: 100.0%
[2]; [13]
  Percentage of concentration relative to the sum of ZEN and ZEN metabolite concentrations: 100.0%
[2]; [14]
  Percentage of concentration relative to the sum of ZEN and ZEN metabolite concentrations: 100.0%
[2]; [15]
  Percentage of concentration relative to the sum of ZEN and ZEN metabolite concentrations: 100.0%
pigs
  Effect on reproductive tract morphology or expression of ZEN-responsive microRNAs: did not affect
[3]
  Detection in reactors: not detected
estrogen-sensitive yeast
  Estrogenic response: did not elicit an estrogenic response
MCF-7 cell
  Estrogenic response: did not elicit an estrogenic response
